{"source": "patent US20250368638A1", "about": "“BICYCLIC INHIBITORS OF NICOTINAMIDE […], COMPOSITIONS AND USES THEREOF” (President and Fellows of Harvard College, priority 2021, published 2025)", "key": {"[1]": {"assay": "Metabolic stability in pooled male mouse liver microsomes", "protocol": "A master solution was prepared according to the following table.\n40 μL of 10 mM NADPH solution was added to each well. The final concentrations of NADPH was 1 mM. The mixture was pre-warmed at 37° C. for 5 minutes. The negative control samples were prepared by replacing NADPH solutions with 40 μL of ultra-pure H2O. The negative control was used to exclude the misleading factor that resulted from instability of chemical itself. Samples with NADPH were prepared in duplicate. Negative controls were prepared in singlet.\nThe reaction was started with the addition of 4 μL of 200 μM control compound or test compound solutions. […] Samples were centrifuged at 3, 220 g for 40 minutes. Aliquot of 90 μL of the supernatant was mixed with 90 μL of ultra-pure H2O and then used for LC-MS/MS analysis.\nFor metabolite standard samples: 1 μL of 400 μM working solution was added to 89 μL master solution following by adding 400 μL of cold acetonitrile with internal standard (IS) (100 nM alprazolam, 200 nM Imipramine, 200 nM labetalol and 2 μM ketoprofen). Then 10 μL of 10 mM NADPH solution or ultra-pure H2O was added to the mixture. Samples were centrifuged at 3,220 g for 40 minutes to precipitate protein. Aliquots of 90 μL supernatant diluted by 90 μL of water was used for LC-MS/MS analysis."}, "[2]": {"test_system": "1-MNA", "assay": "Plasma 1-MNA in mice after dosing with 11 (PK/PD)", "assay_type": "in vivo, Female C57B16/N mice", "excerpt": "Doses were freshly prepared on the day of dosing. Vehicle compositions of each dose are listed below. […] Adjust pH with 1 N hydrochloric acid to obtain a clear solution or (b) 0.2% Tween 80/20% PEG-300 in water. Adjust pH with 1 N hydrochloric acid to obtain a clear solution\nThen the samples were vortexed for 30 s."}, "[3]": {"test_system": "CYP1A2, CYP2A6, CYP2B6, CYP2C8, CYP2C9, CYP2C19, CYP2D6, CYP2E and CYP3A4", "assay": "CYP inhibition studies in human liver microsomes", "assay_type": "in vitro ADME", "settings": "up to 100 μM", "protocol": "1. 1 μL of multiple concentrations of test compound or positive control compound (CYP1A2: furafylline, CYP2A6: tranylcypromine, CYP2B6: ketoconazole, CYP2C8: quercetin, CYP2C9: sulfaphenazole, CYP2C19: N-3-benzylnirvanol, CYP2D6: quinidine, CYP2E1: disulfiram and CYP3A4: ketoconazole) was transferred to the “Compound Plate”. The concentrations of test compounds were 0, 0.6, 2, 6, 20, 60, 2000, 6000 and 20000 μM. The concentrations of positive control compounds were 0, 0.2, 1, 2, 10, 50, 200, 2000 and 10000 μM.\n2. The master solution was prepared according to the Table 9A and 9B, and pre-warmed in the water bath at 37° C. for 5 minutes. 179 μL of master solutions were transferred to “Incubation Plate”. In the mixed system, the final concentrations of test compound were 0, 0.003, 0.01, 0.03, 0.1, 0.3, 10, 30 & 100 μM, and the final concentrations of positive control compound were 0, 0.001, 0.005, 0.01, 0.05, 0.25, 1, 10 & 50 μM. All experiments were performed in duplicate.\n3. The reaction was started with the addition of 20 μL of 10 mM NADPH solution at the final concentration of 1 mM and carried out at 37° C.\n4. […]\n5. […] The formation of metabolites was analyzed by using LC-MS/MS. […]\n6. […] The formation of metabolites were analyzed by using LC-MS/MS. […] The IC50 shift was calculated for evaluating the mechanism of the inhibition."}, "[4]": {"test_system": "Ion Channels, GPCR, Transporter, Kinases, Enzyme and Nuclear Hormone Receptor", "assay": "Off-target safety panel screening", "settings": "at 10 μM", "protocol": "An off-target safety panel screening for 11 was conducted. The class of target teste included Ion Channels, GPCR, Transporter, Kinases, Enzyme and Nuclear Hormone Receptor."}, "[5]": {"settings": "male, mouse, pooled liver microsomes"}, "[6]": {"settings": "10 mg/kg PO of 11, formulation a"}}, "data": [{"smiles": "C[C@@H]1Cc2cc(C(N)=O)cnc2N1", "note": "[Compound 11, (2R)-2-methyl-2,3-dihydro-1H-pyrrolo[2,3-b]pyridine-5-carboxamide]", "values": [{"measurement": "Predicted hepatic CL", "setting": "[1]; Mouse liver microsomes", "result": "<18.76", "unit": "mL/min/kg"}, {"measurement": "Remaining (%) at 60 minutes", "setting": "[1]; Mouse liver microsomes", "result": 93.24, "unit": "%"}, {"measurement": "CLint scaled at 2 μM", "setting": "[1]; [5]", "result": "< 23.7", "unit": "mL/min/kg"}, {"measurement": "half-life at 2 μM", "setting": "[1]; [5]", "result": "> 256", "unit": "min"}, {"measurement": "microsomal CLint at 2 μM", "setting": "[1]; [5]", "result": "< 5.42", "unit": "µL/min/mg"}, {"measurement": "AUClast of 1-MNA", "setting": "[2]; 1 mg/kg IV of 11", "result": 1289, "unit": "ng·h/mL"}, {"measurement": "AUClast of 1-MNA", "setting": "[2]; [6]", "result": 943, "unit": "ng·h/mL"}, {"measurement": "Cmax of 1-MNA", "setting": "[2]; [6]", "result": 54.9, "unit": "ng/mL"}, {"measurement": "Tmax of 1-MNA", "setting": "[2]; [6]", "result": 24.0, "unit": "h"}, {"measurement": "AUClast of 1-MNA", "setting": "[2]; 50 mg/kg of 11, formulation a", "result": 653, "unit": "ng·h/mL"}, {"measurement": "Cmax of 1-MNA", "setting": "[2]; 50 mg/kg of 11, formulation a", "result": 54.8, "unit": "ng/mL"}, {"measurement": "Tmax of 1-MNA", "setting": "[2]; 50 mg/kg of 11, formulation a", "result": 24.0, "unit": "h"}, {"measurement": "AUClast of 1-MNA", "setting": "[2]; 50 mg/kg of 11, formulation b", "result": 667, "unit": "ng·h/mL"}, {"measurement": "Cmax of 1-MNA", "setting": "[2]; 50 mg/kg of 11, formulation b", "result": 70.1, "unit": "ng/mL"}, {"measurement": "Tmax of 1-MNA", "setting": "[2]; 50 mg/kg of 11, formulation b", "result": 8.17, "unit": "h"}, {"measurement": "Inhibition of CYP isoforms", "setting": "[3]", "result": "did not inhibit"}, {"measurement": "Off-target activity", "setting": "[4]", "result": "did not show significant off-target activity"}]}]}
